Experimental data published in ChEMBL document CHEMBL4619828, “Discovery of Potent and Orally Bioavailable Small Molecule Antagonists of Toll-like Receptors 7/8/9 (TLR7/8/9)” (ACS Med Chem Lett, 2020).

What was measured:
Toll-like receptor 7 = target: T1, Toll-like receptor 7 (Mus musculus, UniProt P58681); test: Antagonist activity at TLR7 in mouse whole blood cells assessed as inhibition of gardiquimod induced IL-6 production by ELISA; assay type: cell-based
T1 sequence (P58681 whole entry): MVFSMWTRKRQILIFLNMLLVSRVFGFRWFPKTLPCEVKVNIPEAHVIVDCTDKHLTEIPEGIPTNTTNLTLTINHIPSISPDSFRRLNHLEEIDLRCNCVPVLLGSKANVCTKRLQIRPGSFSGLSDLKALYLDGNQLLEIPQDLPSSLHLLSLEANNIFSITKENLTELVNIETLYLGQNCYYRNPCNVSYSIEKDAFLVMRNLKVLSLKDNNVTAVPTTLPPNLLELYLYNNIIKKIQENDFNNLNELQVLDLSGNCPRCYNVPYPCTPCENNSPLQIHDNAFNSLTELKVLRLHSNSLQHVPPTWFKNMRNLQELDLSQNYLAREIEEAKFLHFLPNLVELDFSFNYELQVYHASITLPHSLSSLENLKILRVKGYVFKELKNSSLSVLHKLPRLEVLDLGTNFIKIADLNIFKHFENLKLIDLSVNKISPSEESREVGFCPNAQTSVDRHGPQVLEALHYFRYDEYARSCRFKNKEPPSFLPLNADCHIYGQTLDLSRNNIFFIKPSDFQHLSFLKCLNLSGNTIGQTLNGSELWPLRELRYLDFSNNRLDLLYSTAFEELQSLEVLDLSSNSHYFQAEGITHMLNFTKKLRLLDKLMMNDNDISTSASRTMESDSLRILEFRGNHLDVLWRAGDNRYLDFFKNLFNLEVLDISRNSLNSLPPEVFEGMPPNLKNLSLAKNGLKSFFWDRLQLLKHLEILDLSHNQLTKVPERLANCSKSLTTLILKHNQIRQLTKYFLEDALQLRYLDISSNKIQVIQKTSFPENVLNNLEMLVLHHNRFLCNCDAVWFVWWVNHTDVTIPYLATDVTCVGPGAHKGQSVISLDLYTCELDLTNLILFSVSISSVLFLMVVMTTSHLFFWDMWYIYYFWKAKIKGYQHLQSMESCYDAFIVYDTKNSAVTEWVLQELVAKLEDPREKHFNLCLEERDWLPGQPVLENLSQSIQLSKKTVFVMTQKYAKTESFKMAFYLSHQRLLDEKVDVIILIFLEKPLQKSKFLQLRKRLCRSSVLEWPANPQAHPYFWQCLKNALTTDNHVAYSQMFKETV

Toll-like receptor 9 [1] = target: T2, Toll-like receptor 9 (Mus musculus, UniProt Q9EQU3)
T2 sequence (Q9EQU3 whole entry): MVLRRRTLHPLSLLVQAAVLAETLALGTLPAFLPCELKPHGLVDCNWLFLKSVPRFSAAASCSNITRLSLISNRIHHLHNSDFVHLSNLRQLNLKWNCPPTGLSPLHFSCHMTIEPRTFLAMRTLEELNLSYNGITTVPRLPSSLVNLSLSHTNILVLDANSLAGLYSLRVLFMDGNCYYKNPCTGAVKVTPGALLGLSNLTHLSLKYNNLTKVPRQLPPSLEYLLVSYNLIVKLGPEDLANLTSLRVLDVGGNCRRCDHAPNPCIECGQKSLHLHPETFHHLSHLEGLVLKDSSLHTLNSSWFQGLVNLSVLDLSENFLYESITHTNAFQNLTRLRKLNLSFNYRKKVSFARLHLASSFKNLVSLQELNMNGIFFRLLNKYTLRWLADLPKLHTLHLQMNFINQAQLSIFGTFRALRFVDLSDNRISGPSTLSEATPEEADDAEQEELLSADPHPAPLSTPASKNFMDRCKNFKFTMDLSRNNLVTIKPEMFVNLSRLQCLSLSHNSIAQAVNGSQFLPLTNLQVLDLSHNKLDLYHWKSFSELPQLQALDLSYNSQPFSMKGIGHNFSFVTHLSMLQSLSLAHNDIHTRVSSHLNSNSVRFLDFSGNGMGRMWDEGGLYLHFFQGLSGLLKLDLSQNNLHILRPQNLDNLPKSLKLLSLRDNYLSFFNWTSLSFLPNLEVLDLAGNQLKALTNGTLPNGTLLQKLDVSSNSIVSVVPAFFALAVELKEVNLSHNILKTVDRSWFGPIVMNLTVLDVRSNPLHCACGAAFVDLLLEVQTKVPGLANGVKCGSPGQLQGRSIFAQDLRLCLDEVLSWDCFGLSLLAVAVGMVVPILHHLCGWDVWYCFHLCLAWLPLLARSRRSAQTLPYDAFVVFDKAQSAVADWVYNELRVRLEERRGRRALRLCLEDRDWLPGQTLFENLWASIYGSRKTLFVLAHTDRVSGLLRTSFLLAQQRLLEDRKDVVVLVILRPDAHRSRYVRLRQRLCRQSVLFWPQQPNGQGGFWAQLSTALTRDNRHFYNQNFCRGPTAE
Description: In vivo antagonist activity at TLR9 in po dosed C57BL/6 mouse assessed as reduction of CpG-ODN-1585-induced IL-6 production pretreated for 30 mins followed by CpG-ODN-1585-stimulation and measured after 120 mins by ELISA

Toll-like receptor 9 [2] = target: T3, Toll-like receptor 9 (Homo sapiens, UniProt Q9NR96); test: Antagonist activity at TLR9 (unknown origin) in PBMC cells assessed as reduction of IL-6 production; assay type: cell-based
T3 sequence (Q9NR96 whole entry): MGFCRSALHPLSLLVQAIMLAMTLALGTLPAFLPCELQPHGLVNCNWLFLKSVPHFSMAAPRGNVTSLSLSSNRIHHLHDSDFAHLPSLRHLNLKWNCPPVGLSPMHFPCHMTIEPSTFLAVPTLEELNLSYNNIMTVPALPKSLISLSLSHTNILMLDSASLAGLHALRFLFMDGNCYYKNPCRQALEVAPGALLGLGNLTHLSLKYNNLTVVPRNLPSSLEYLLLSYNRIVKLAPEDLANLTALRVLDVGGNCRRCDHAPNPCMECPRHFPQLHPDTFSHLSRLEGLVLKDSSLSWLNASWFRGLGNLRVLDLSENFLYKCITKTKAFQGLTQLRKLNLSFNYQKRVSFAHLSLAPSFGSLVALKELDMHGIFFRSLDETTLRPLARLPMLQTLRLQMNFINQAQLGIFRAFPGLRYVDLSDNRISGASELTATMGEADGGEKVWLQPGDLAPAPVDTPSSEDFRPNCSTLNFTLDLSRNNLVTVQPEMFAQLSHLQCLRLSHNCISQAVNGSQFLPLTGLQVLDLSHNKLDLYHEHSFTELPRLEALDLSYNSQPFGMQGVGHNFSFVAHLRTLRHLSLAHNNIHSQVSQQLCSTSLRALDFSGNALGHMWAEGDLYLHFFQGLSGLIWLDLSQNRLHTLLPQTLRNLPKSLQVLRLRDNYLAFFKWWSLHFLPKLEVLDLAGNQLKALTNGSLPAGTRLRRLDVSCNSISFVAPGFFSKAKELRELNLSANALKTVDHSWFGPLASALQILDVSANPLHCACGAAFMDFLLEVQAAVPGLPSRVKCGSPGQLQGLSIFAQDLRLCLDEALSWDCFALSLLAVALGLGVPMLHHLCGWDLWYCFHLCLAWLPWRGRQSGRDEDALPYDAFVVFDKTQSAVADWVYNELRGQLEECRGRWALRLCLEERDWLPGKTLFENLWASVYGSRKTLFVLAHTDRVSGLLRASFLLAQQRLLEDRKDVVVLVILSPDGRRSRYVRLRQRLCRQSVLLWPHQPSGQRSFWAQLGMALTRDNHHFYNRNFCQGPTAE

Which IC50 (Toll-like receptor 7) does the source give for `CNCCN1CCC(c2ccc3[nH]c(-c4ccc(OC)c(OC)c4)c(C(C)C)c3c2)CC1` here?
The IC50 was 43 nM.

And the EC50 (Toll-like receptor 9 [1])?
Its EC50 is 25 nM.

What about the IC50 (Toll-like receptor 9 [2]) of the same compound?
The IC50 was 510 nM.
